# From patent publication US20220062296A1, “COMBINATIONS OF GABAA ALPHA 5 AGONISTS AND SV2A INHIBITORS AND METHODS OF USING IN THE TREATMENT OF COGNITIVE IMPAIRMENT” (AGENEBIO, INC., priority 2020, published 2022)
# Key:
# [1] = tested on: aged-impaired (AI) Long-Evans rats; assay: Morris Water Maze (MWM) retention trial, levetiracetam; format: in vivo, rat; settings: for time spent in the target quadrant (percentage of total swimming time): retention trial 24 hours after training
# Description: Six aged-impaired (AI) Long-Evans rats (as characterized above) were tested for their memory of new spatial information in the Morris water maze (MWM), under different drug/control treatment conditions (vehicle control and two different dosage levels of levetiracetam). A retention trial was performed after the training trials, as described below. The MWM apparatus consists of a large, circular pool (diameter 1.53 m; height, 0.58 m) filled with water (27° C.) that is made opaque through the addition of non-toxic pigment or some other substance. In the typical “hidden platform” version of the test, rats are trained to find a camouflaged white escape platform (height, 34.5 cm) that is positioned in the center of one quadrant of the maze about 1.0 cm below the water surface. This platform can be retracted to the bottom of the tank or raised to its normal position from outside the maze during behavioral testing. The location of the platform remains constant from trial to trial. Because there are no local cues that mark the position of the platform, the rat's ability to locate it efficiently from any starting position at the perimeter of the pool depends on using information surrounding the maze. The maze is surrounded by black curtains to which white patterns are affixed to provide a configuration of spatial cues. A second platform (height 37.5 cm), with its surface painted black is elevated 2 cm above the water surface during cue training to control for factors unrelated to cognition. The behavior of a rat in the pool is recorded by a camera that is suspended 2.5 m above the center of the pool. The camera is connected to a video tracking system (HVS Image Advanced Tracker VP200) and a PC computer running HVS software developed by Richard Baker of HVS Image, Hampton, UK. […] On each training trial, the rat was released in the maze from one of four equally spaced starting positions around the perimeter of the pool. […] In the retention trial, the time the AI rats spent swimming in the target quadrant is measured and further plotted as a percentage of total swimming time. […]
# [2] = tested on: reelin in Entorhinal Cortex (EC2); assay: Reelin mRNA in situ hybridization in entorhinal cortex (EC2); settings: 10 mg/kg/day for 28 days; vs AI-VEH p=0.033
compound,measurement,setting,value
"CC[C@@H](C(N)=O)N1CCCC1=O [levetiracetam, (2S)-2-(2-oxopyrrolidin-1-yl)butanamide]",time spent in the target quadrant (percentage of total swimming time),"[1]; levetiracetam 5 mg/kg/day i.p., vs vehicle",did not significantly improve
same,time spent in the target annulus,"[1]; levetiracetam 10 mg/kg/day i.p., retention trial",effectiveness of the 10 mg/kg/day levetiracetam treatment was also seen
same,time spent in the target quadrant (percentage of total swimming time),[1]; levetiracetam 10 mg/kg/day i.p.,approximately 35%
same,reelin mRNA expression in the lateral entorhinal cortex,[2],significantly increased the expression of reelin
